Results from ChEMBL document CHEMBL1629520, “Synthesis and optimization of antitubercular activities in a series of 4-(aryloxy)phenyl cyclopropyl methanols” (Eur J Med Chem, 2010).

How the values were obtained:
Type in all cases: functional
[1] = test system: Mycobacterium tuberculosis; assay: Antitubercular activity against RMF-resistant Mycobacterium tuberculosis clinical isolate2 after 30 days by agar microdilution method
[2] = test system: Mycobacterium tuberculosis; assay: Antitubercular activity against RMF-resistant Mycobacterium tuberculosis clinical isolate1 after 30 days by agar microdilution method
[3] = test system: Mycobacterium tuberculosis; assay: Antitubercular activity against extensively drug-resistant Mycobacterium tuberculosis clinical isolate after 30 days by agar microdilution method
[4] = test system: Mycobacterium tuberculosis; assay: Antitubercular activity against multi drug-resistant Mycobacterium tuberculosis clinical isolate after 30 days by agar microdilution method

Measured: MIC

OC(c1ccc(OCc2ccc(OCCN3CCCCC3)cc2)cc1)C1CC1 (centres undefined)
12.5 µg/mL: all assays above
